The values that follow come from patent US20260200928A1, “THERAPEUTIC COMPOUNDS” (Sanofi, priority 2022, published 2026).

pIC50: −log10 of the molar value.

For this test, the target named is T1, human IL-17A (Homo sapiens, UniProt Q16552).
T1 construct: purchased R&D Systems 7955-IL/CF
T1 sequence (Q16552 24-155): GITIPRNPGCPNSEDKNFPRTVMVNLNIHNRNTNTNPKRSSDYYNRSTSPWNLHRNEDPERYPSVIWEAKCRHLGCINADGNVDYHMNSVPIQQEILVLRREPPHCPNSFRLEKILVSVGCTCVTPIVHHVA
The test can be described thus: IL-17A AlphaLISA competition assay (block of IL-17A binding to its receptor IL-17RA). The settings on record: mean IC50 (n≥2), block of IL-17A binding to IL-17RA. Put shortly:
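Human recombinant IL-17A (7.5 nM stock) pre-incubated 30 min at RT with compound, then IL-17RA/Fc (5 nM stock) added for 90 min; AlphaLISA read with anti-Fc acceptor beads, biotinylated anti-IL-17A antibody (5 nM) and streptavidin donor beads (3 h, dark). IC50 from 4-parameter logistic fit, normalised to DMSO and 4 μM reference inhibitor; n≥2.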
In general terms: In Alpha technology, singlet oxygen from a donor bead excites a nearby acceptor bead.

For orientation: pIC50 means the negative decadic logarithm of the IC50, by convention in mol/L. Read a high pIC50 as a low IC50. `O=C(NC(C(=O)Nc1cc(CN2CC(C(F)(F)F)NC2=O)ccn1)C1CCC(F)CC1)c1nonc1C1CC1` [Example 292, 4-cyclopropyl-N-((S)-1-((1r,4S)-4-fluorocyclohexyl)-2-oxo-2-((4-(((S)-2-oxo-4-(trifluoromethyl)imidazolidin-1-yl)methyl)pyridin-2-yl)amino)ethyl)-1,2,5-oxadiazole-3-carboxamide] showed a pIC50 of 6.98. Regarding `CCn1nccc1C(=O)NC(C(=O)Nc1cc(CN2CC(C(F)(F)F)NC2=O)ccn1)C1CCC(F)CC1` [Example 293, 1-ethyl-N-((S)-1-((1r,4S)-4-fluorocyclohexyl)-2-oxo-2-((4-(((S)-2-oxo-4-(trifluoromethyl)imidazolidin-1-yl)methyl)pyridin-2-yl)amino)ethyl)-1H-pyrazole-5-carboxamide], the pIC50 is 6.82. Consider `Cn1nccc1C(=O)NC(C(=O)Nc1cc(CN2CC(C(F)(F)F)NC2=O)ccn1)C1CCC(F)CC1` [Example 294, N-((S)-1-((1r,4S)-4-fluorocyclohexyl)-2-oxo-2-((4-(((S)-2-oxo-4-(trifluoromethyl)imidazolidin-1-yl)methyl)pyridin-2-yl)amino)ethyl)-1-methyl-1H-pyrazole-5-carboxamide], for which the pIC50 was 6.43. Consider `CCc1nocc1C(=O)N[C@H](C(=O)Nc1cc([C@@H](COC)N2C[C@@H](C(F)(F)F)NC2=O)ccn1)C1CCC(C(F)(F)F)CC1` (stereo partly drawn) [Example 300, 3-ethyl-N-((1S)-2-((4-((S)-2-methoxy-1-((S)-2-oxo-4-(trifluoromethyl)-imidazolidin-1-yl)ethyl)pyridin-2-yl)amino)-2-oxo-1-(4-(trifluoromethyl)-cyclohexyl)ethyl)isoxazole-4-carboxamide], for which the pIC50 was 7.41. Molecule `CCn1nccc1C(=O)N[C@H](C(=O)Nc1cc([C@@H](COC)N2C[C@@H](C(F)(F)F)NC2=O)ccn1)C1CCC(C(F)(F)F)CC1` (stereo partly drawn) [Example 301, 1-ethyl-N-((1S)-2-((4-((S)-2-methoxy-1-((S)-2-oxo-4-(trifluoromethyl)imidazolidin-1-yl)ethyl)pyridin-2-yl)amino)-2-oxo-1-(4-(trifluoromethyl)-cyclohexyl)ethyl)-1H-pyrazole-5-carboxamide] had a pIC50 of 7.42. In the case of `COC[C@H](c1ccnc(NC(=O)[C@@H](NC(=O)c2ccnn2C)C2CCC(C(F)(F)F)CC2)c1)N1C[C@@H](C(F)(F)F)NC1=O` (stereo partly drawn) [Example 302, N-((1S)-2-((4-((S)-2-methoxy-1-((S)-2-oxo-4-(trifluoromethyl)imidazolidin-1-yl)ethyl)pyridin-2-yl)amino)-2-oxo-1-(4-(trifluoromethyl)-cyclohexyl)ethyl)-1-methyl-1H-pyrazole-5-carboxamide], the negative-log IC50 (pIC50) is 7.36.

With `CCn1nccc1C(=O)N[C@H](C(=O)Nc1cc([C@@H](COC)N2C[C@@H](C(F)(F)F)NC2=O)ccn1)C1CCC(Cl)CC1` (stereo partly drawn) [Example 310, N-((1S)-1-(4-chlorocyclohexyl)-2-((4-((S)-2-methoxy-1-((S)-2-oxo-4-(trifluoromethyl)imidazolidin-1-yl)ethyl)pyridin-2-yl)amino)-2-oxoethyl)-1-ethyl-1H-pyrazole-5-carboxamide], the pIC50 is 7.15. Take `COC[C@H](c1ccnc(NC(=O)[C@@H](NC(=O)c2ccnn2C(C)C)C2CCC(Cl)CC2)c1)N1C[C@@H](C(F)(F)F)NC1=O` (stereo partly drawn) [Example 312, N-((1S)-1-(4-chlorocyclohexyl)-2-((4-((S)-2-methoxy-1-((S)-2-oxo-4-(trifluoromethyl)imidazolidin-1-yl)ethyl)pyridin-2-yl)amino)-2-oxoethyl)-1-isopropyl-1H-pyrazole-5-carboxamide]: the pIC50 is 6.92. For the molecule `COC[C@H](c1ccnc(NC(=O)[C@@H](NC(=O)c2conc2C)C2CCC(Cl)CC2)c1)N1C[C@@H](C(F)(F)F)NC1=O` (stereo partly drawn) [Example 313, N-((1S)-1-(4-chlorocyclohexyl)-2-((4-((S)-2-methoxy-1-((S)-2-oxo-4-(trifluoromethyl)imidazolidin-1-yl)ethyl)pyridin-2-yl)amino)-2-oxoethyl)-3-methylisoxazole-4-carboxamide], the pIC50 was 6.96. `CCc1conc1C(=O)N[C@H](C(=O)Nc1cc([C@@H](COC)N2C[C@@H](C(F)(F)F)NC2=O)ccn1)C1CCC(Cl)CC1` (stereo partly drawn) [Example 314, N-((1S)-1-(4-chlorocyclohexyl)-2-((4-((S)-2-methoxy-1-((S)-2-oxo-4-(trifluoromethyl)imidazolidin-1-yl)ethyl)pyridin-2-yl)amino)-2-oxoethyl)-4-ethylisoxazole-3-carboxamide] had a pIC50 of 7.24. This pIC50 is 0.28 log units higher than that of the molecule before.

On to `COC[C@H](c1ccnc(NC(=O)[C@@H](NC(=O)c2nonc2C)C2CCC(Cl)CC2)c1)N1C[C@@H](C(F)(F)F)NC1=O` (stereo partly drawn) [Example 315, N-((1S)-1-(4-chlorocyclohexyl)-2-((4-((S)-2-methoxy-1-((S)-2-oxo-4-(trifluoromethyl)imidazolidin-1-yl)ethyl)pyridin-2-yl)amino)-2-oxoethyl)-4-methyl-1,2,5-oxadiazole-3-carboxamide], for which the pIC50 is 7.05.

Turning to `CCc1nonc1C(=O)N[C@H](C(=O)Nc1cc([C@@H](COC)N2C[C@@H](C(F)(F)F)NC2=O)ccn1)C1CCC(Cl)CC1` (stereo partly drawn) [Example 316, N-((1S)-1-(4-chlorocyclohexyl)-2-((4-((S)-2-methoxy-1-((S)-2-oxo-4-(trifluoromethyl)imidazolidin-1-yl)ethyl)pyridin-2-yl)amino)-2-oxoethyl)-4-ethyl-1,2,5-oxadiazole-3-carboxamide], the negative logarithm of the IC50 (pIC50) was 7.34. Turning to `CCc1nocc1C(=O)N[C@H](C(=O)Nc1cc([C@@H](COC)N2C[C@@H](C(F)(F)F)NC2=O)ccn1)C1CCC(Cl)CC1` (stereo partly drawn) [Example 317, N-((1S)-1-(4-chlorocyclohexyl)-2-((4-((S)-2-methoxy-1-((S)-2-oxo-4-(trifluoromethyl)imidazolidin-1-yl)ethyl)pyridin-2-yl)amino)-2-oxoethyl)-3-ethylisoxazole-4-carboxamide], the pIC50 was 7.72. Take `CCc1oncc1C(=O)N[C@H](C(=O)Nc1cc([C@@H](COC)N2C[C@@H](C(F)(F)F)NC2=O)ccn1)[C@@H]1C[C@H]2C[C@H]2C1` [Example 318, N—((S)-1-((1R,3s,5S)-bicyclo[3.1.0]hexan-3-yl)-2-((4-((S)-2-methoxy-1-((S)-2-oxo-4-(trifluoromethyl)imidazolidin-1-yl)ethyl)pyridin-2-yl)amino)-2-oxoethyl)-5-ethylisoxazole-4-carboxamide]: the pIC50 is 7.19.

As to `COC[C@H](c1ccnc(NC(=O)[C@@H](NC(=O)c2cnoc2C(C)C)[C@@H]2C[C@H]3C[C@H]3C2)c1)N1C[C@@H](C(F)(F)F)NC1=O` [Example 319, N—((S)-1-((1R,3s,5S)-bicyclo[3.1.0]hexan-3-yl)-2-((4-((S)-2-methoxy-1-((S)-2-oxo-4-(trifluoromethyl)imidazolidin-1-yl)ethyl)pyridin-2-yl)amino)-2-oxoethyl)-5-isopropylisoxazole-4-carboxamide], the pIC50 is 7.42.

`CC(C)n1nccc1C(=O)N[C@H](C(=O)Nc1cc(O[C@H]2C[C@@H](C(F)(F)F)NC2=O)ccn1)[C@H]1CC[C@H](C)CC1` [Example 320, 1-isopropyl-N—((S)-1-((1r,4S)-4-methylcyclohexyl)-2-oxo-2-((4-(((3S,5S)-2-oxo-5-(trifluoromethyl)pyrrolidin-3-yl)oxy)pyridin-2-yl)amino)ethyl)-1H-pyrazole-5-carboxamide] showed a pIC50 of 6.22. Then `CCc1nocc1C(=O)N[C@H](C(=O)Nc1cc(O[C@H]2C[C@@H](C(F)(F)F)NC2=O)ccn1)[C@H]1CC[C@H](C)CC1` [Example 321, 3-ethyl-N—((S)-1-((1r,4S)-4-methylcyclohexyl)-2-oxo-2-((4-(((3S,5S)-2-oxo-5-(trifluoromethyl)pyrrolidin-3-yl)oxy)pyridin-2-yl)amino)ethyl)isoxazole-4-carboxamide], with 6.16. Then `CCn1nccc1C(=O)N[C@H](C(=O)Nc1cc(O[C@H]2C[C@@H](C(F)(F)F)NC2=O)ccn1)[C@H]1CC[C@H](C)CC1` [Example 322, 1-ethyl-N—((S)-1-((1r,4S)-4-methylcyclohexyl)-2-oxo-2-((4-(((3S,5S)-2-oxo-5-(trifluoromethyl)pyrrolidin-3-yl)oxy)pyridin-2-yl)amino)ethyl)-1H-pyrazole-5-carboxamide], with 6.09. Regarding `CC(C)n1nccc1C(=O)N[C@H](C(=O)Nc1cc(O[C@@H]2C[C@@H](C(F)(F)F)NC2=O)ccn1)[C@H]1CC[C@H](C)CC1` [Example 323, 1-isopropyl-N—((S)-1-((1r,4S)-4-methylcyclohexyl)-2-oxo-2-((4-(((3R,5S)-2-oxo-5-(trifluoromethyl)pyrrolidin-3-yl)oxy)pyridin-2-yl)amino)ethyl)-1H-pyrazole-5-carboxamide], the pIC50 was 5.92.

Consider “N-((1S)-1-(4-chlorocyclohexyl)-2-((4-((S)-2-methoxy-1-((S)-2-oxo-4-(trifluoromethyl)imidazolidin-1-yl)ethyl)pyridin-2-yl)amino)-2-oxoethyl)-1-methyl-1H-pyrazole-5-carboxamide [Example 311]”, for which the pIC50 is 7.02. This pIC50 lies 1.10 log units higher than the previous one. As to “N-((S)-1-(4,4-difluorocyclohexyl)-2-oxo-2-((4-(2-((S)-2-oxo-4-(trifluoromethyl)imidazolidin-1-yl)propan-2-yl)pyridin-2-yl)amino)ethyl)-1-isopropyl-1H-pyrazole-5-carboxamide [Example 175]”, the negative logarithm of the IC50 (pIC50) was 6.42.

In turn, “N-((S)-2-((4-((S)-1-(5,5-difluoro-2-oxotetrahydropyrimidin-1(2H)-yl)-2-methoxyethyl)pyridin-2-yl)amino)-1-(4,4-difluorocyclohexyl)-2-oxoethyl)-4-ethyl-1,2,5-oxadiazole-3-carboxamide [Example 183]” had a pIC50 of 7.38.
